This is an account of results in patent US20250099405A1, “COMPOSITIONS, METHODS, AND DEVELOPMENT OF ARID4B INHIBITORS” (University of Kentucky Research Foundation, priority 2022, published 2025).

The target of series [1] is T1, ARID4B binding to H3K4me3 (Homo sapiens, UniProt Q4LE39).
T1 construct: His; made in house; host or cells: Sf9
T1 sequence (Q4LE39 1-1312): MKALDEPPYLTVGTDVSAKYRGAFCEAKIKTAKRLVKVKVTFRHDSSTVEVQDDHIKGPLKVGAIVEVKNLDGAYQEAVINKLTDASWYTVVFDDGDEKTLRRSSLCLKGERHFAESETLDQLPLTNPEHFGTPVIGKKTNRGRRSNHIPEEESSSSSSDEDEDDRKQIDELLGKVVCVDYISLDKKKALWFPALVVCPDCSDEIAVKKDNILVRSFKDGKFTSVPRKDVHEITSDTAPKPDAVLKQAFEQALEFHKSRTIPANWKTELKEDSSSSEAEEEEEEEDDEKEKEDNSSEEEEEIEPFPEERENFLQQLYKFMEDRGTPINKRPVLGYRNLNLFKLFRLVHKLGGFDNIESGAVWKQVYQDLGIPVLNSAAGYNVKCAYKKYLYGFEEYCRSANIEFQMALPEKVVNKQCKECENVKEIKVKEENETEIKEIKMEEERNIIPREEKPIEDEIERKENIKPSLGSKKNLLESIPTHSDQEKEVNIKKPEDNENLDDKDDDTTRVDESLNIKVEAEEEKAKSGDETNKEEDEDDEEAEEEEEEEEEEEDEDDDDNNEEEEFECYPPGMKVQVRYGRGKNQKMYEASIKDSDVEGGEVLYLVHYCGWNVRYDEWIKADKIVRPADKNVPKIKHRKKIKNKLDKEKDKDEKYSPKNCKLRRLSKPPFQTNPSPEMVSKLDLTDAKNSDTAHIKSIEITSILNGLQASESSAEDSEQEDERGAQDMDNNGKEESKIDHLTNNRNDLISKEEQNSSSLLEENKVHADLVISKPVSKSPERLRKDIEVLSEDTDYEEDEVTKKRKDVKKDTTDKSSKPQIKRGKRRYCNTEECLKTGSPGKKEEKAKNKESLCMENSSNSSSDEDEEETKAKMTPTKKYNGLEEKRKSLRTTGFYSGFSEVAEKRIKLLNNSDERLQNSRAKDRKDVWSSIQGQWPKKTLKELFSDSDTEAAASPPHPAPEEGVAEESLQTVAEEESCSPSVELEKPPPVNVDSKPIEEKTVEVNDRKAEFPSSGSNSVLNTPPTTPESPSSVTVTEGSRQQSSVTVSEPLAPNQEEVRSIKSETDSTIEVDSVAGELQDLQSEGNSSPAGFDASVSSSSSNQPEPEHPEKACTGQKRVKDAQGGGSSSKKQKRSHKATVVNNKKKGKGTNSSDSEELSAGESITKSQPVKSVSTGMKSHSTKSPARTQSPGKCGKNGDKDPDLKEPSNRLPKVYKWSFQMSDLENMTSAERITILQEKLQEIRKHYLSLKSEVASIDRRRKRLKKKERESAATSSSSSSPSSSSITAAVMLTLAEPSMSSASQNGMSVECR
The experiment in a line: Histone peptide binding assay. The settings on record: His-ARID4B pre-incubated with compound. On the procedure: His-ARID4B was pre-incubated with RWR-18 as indicated followed by histone peptide binding assays.
Histone peptide binding assays were used to determine that ARID4B binds to which methylated lysine. Full-length His-ARID4B and deletion mutants expressed in Sf9 were purified by Ni-NTA affinity resin (FIG. 20A). To determine which methylated lysine ARID4B binds, full-length His-ARID4B was incubated with biotinylated histone H3 peptides tri-methylated at the K4, K9, K27, K36 or K79. The corresponding unmethylated H3 peptides were used as controls ([…]). […] Next, the ARID4B deletion mutants were used to determine domain(s) of ARID4B responsible for binding to H3K4me3. Deletion of Tudor and chromo domains impaired binding to H3K4me3 (FIG. 20C, compare lanes 3, 4, and 7).
Since RWR-18 targets the chromodomain of ARID4B, which is important for binding to H3K4me3 (FIG. 20), it was tested whether RWR-18 interferes with binding of H3K4me3 using histone peptide binding assays as described above.

A further series has as its target T2, ARID4B (Homo sapiens, UniProt Q4LE39).
T2 construct: endogenous in cells; host or cells: MCF7
T2 sequence (Q4LE39 1-1312): T1 sequence (Q4LE39 1-1312)
Kind of series: Cellular thermal shift assay (CETSA), endogenous ARID4B in MCF7 cells. It is filed as cell-based. The settings on record: 10 μM, 2 h, 49-52° C. without compound. On the procedure: (B-C) show cells expressing HA-ARID4B (C) or HA-ARID4BIC (D) treated or not with ARD150 (10 μM) for 2 h were used for CESTA. […] (D-E) show cells expressing HA-ARID4B (D) or Flag-ARID4A (E) treated or not with RWR-18 (10 μM) for 2 h were used for CESTA. […] Data are means±SEM from three experiments. *P<0.05, **P<0.01, ns, not significant.
Using CETSA (cellular thermal shift assay) to examine whether ARD150 or RWR-18 binds to ARID4B, MCF7 cells treated or not with ARD150 or RWR-18 for 2 h were collected, followed by heating at 46, 49, 52, 55, and 58° C. to denature and precipitate ARID4B protein, cell lysis, removal of cell debris and aggregates by centrifugation, and finally detection of remaining thermostable ARID4B protein by western blot. The ARID4B aggregation temperatures without ARD150 were determined to be 49-52° C., but shifted to 52-55° C. after treatment with ARD150 and even more so with RWR-18 (FIG. 15A-D). To determine whether ARD150 and RWR-18 targets the chromodomain of ARID4B, CESTA was performed using chromodomain deletion mutant (ARID4BAC). HEK-293T cells expressing HA-ARID4B or HA-ARID4BAC were treated or not with ARD150 (10 μM) for 2 h and processed for CESTA.

Series [2] is described as follows: Tolerability of ARD150 in mice. The conditions noted are these: 125 mg/kg. The format is in vivo. The protocol: Representative HE images of liver and spleen from mice treated with vehicle or ARD150. Images from vehicle and the highest doses of ARD150 (125 mg/kg) were shown (B). […] Three biological replicates for each time point.
The rational development of a small molecule inhibitor (SMI) of a given protein-protein pathway involves a multidisciplinary approach: computational studies, chemical synthesis, characterization of compounds, and biological characterization. ARID4B lacks a defined crystal structure which requires a heavier emphasis on in silico studies to develop SMIs for this pathway. […] Initial biological characterization through cell-based assays and in vitro/in vivo studies have shown that ARD150 targets ARID4B and is tolerable in mice at extremely high concentrations (125 mg/kg). […] Thus, even though ARD150 is a first-in-class inhibitor, further optimization is necessary to improve its characteristics as a theoretical treatment option for endocrine-resistant breast cancer.

As to `O=C(COc1ccc(OCc2ccccc2)cc1)NCCCN1CCOCC1` [RWR-18], the “binding of ARID4B to H3K4me3” value in series [1] is reported as “inhibited”.
As to `COc1ccc(C(=O)NCCCN2CCOCC2)cc1OC` [ARD150], the ARID4B aggregation temperatures at ARID4B is 52-55 °C. Besides, the tolerability in mice entry in series [2] is reported as “tolerable”.
